From article PMC7395068, “The evolution of strategies to minimise the risk of human drug-induced liver injury (DILI) in drug discovery and development” (Archives of Toxicology, 2020)
Where two headings read alike, the source gives them in different places.

How the values were obtained:
[1] = system: HepG2 cells; conditions: In vitro Assay; ref Persson 2013; cited from earlier work
[2] = system: PHH; conditions: cited from earlier work; for PHH/100uM, Proctor (2017): IC50 threshold 100 µM; for PHH ATP <100uM: In vitro Assay, ref Proctor 2017
[3] = system: HepaRG spheroids; assay: Combined HCI (HCS) and cellular ATP 3D assay in HepaRG spheroids; conditions: for HepaRG <10 uM All: cut-off <10 uM; for AC50 / minimal effective concentration: Homo sapiens
[4] = system: hLiMTs; conditions: cited from earlier work; for hLiMTs ATP <100uM: In vitro Assay, ref Proctor 2017; for hLiMTs/100uM, Proctor (2017): IC50 threshold 100 µM
[5] = system: hLiMTs; assay: Combined HCI (HCS) and cellular ATP 3D assay in hLiMTs; conditions: for AC50 / minimal effective concentration: Homo sapiens; for hLiMTs <10 uM All: cut-off <10 uM
Description: 3D spheroid models consisting of either primary human hepatocytes with non-parenchymal cells (hLiMT’s) or HepaRG cells (HepaRG spheroids) were assessed for size (MS), oxidative stress (OS), MMP, mitochondrial mass (MM), GSH and cellular ATP content following drug exposure. Fluorescent images are acquired using the confocal mode of an ArrayScan™ XTI HCI reader (ThermoScientific) following which cellular ATP was measured using 3D CellTiter-Glo (Promega).

[6] = system: THLE-Null and THLE-3A4 cells; conditions: In vitro Assay; ref Gustafsson 2014; cited from earlier work
[7] = system: isolated mouse liver mitochondria; conditions: In vitro Assay; ref Porceddu 2012; cited from earlier work
[8] = system: HepG2 cells; conditions: In vitro Assay; ref O'Brien 2006; cited from earlier work
[9] = system: HepG2 cells; conditions: In vitro Assay; ref Tolosa 2012; cited from earlier work
[10] = system: HepG2 cells, primary human hepatocytes; conditions: In vitro Assay; ref Garside 2014; cited from earlier work
[11] = cited from earlier work
[12] = system: human hepatocytes; conditions: In vitro Assay; ref Xu 2008; cited from earlier work
[13] = cited from earlier work; remark: listed apart in the source
[14] = FDA drug labelling score, scale 1-8; ref Chen 2011; cited from earlier work
[15] = read-out: Human plasma Cmax; total plasma Cmax.tot, median of 9 literature references; cited from earlier work
[16] = system: HepG2 C3A spheroid, BSEP, Glu/Gal in HepG2 cells, bioactivation; conditions: cited from earlier work
[17] = 2D PHH, ATP, ref Proctor et al. 2017
[18] = hLiMTs, ATP, ref Proctor et al. 2017
[19] = Microtissue model structural based (HCI), combined HCS and ATP, MEC < 25 × Cmax.tot cut-off

CCCCc1oc2ccccc2c1C(=O)c1cc(I)c(OCCN(CC)CC)c(I)c1 [amiodarone]
Cluser analysis [1]: +VE | Structural based (HCI) [1]: +VE | PHH/100uM, Proctor (2017) [2, 17]: +VE (IC50 threshold of 100 µM) | PHH ATP <100uM [2]: +VE (IC50 threshold of 100 µM) | HepaRG <10 uM All ([3]; HepaRG, all endpoints): +ve (<10 uM) | AC50 ([3]; HepaRG, read-out: ATP endpoint AC50): 112 µM | minimal effective concentration ([3]; HepaRG, read-out: ATP endpoint MEC): 98.8 µM | AC50 ([3]; HepaRG, read-out: HCS endpoint AC50): 13.1 µM | minimal effective concentration ([3]; HepaRG, read-out: HCS endpoint MEC): 4.62 µM | hLiMTs ATP <100uM [4]: +VE (IC50 threshold of 100 µM) | hLiMTs/100uM, Proctor (2017) [4, 18]: +VE (IC50 threshold of 100 µM) | AC50 ([5]; read-out: ATP endpoint AC50): 5.33 µM | minimal effective concentration ([5]; read-out: ATP endpoint MEC): 4.58 µM | AC50 ([5]; read-out: HCS endpoint AC50): 28.2 µM | minimal effective concentration ([5]; read-out: HCS endpoint MEC): 6.51 µM | hLiMTs <10 uM All ([5]; hLiMTs, all endpoints): +ve (<10 uM) | THLE-Null [6]: +VE | in vitro data EC20<=2uM [7]: +VE | Structural based (HCI) [8]: +VE | Structural based (HCI) [9]: +VE

CN(C)CCC=C1c2ccccc2CCc2ccccc21 [amitriptyline]
Cluser analysis [1]: +VE | Structural based (HCI) [1]: +VE | Cluster 1-6 +VE Assay [10]: +VE | PHH ATP <100uM [2]: +VE (IC50 threshold of 100 µM) | DILI +VE (5-8), DILI -VE (-4) ([11]; ref Chen 2016): +VE | DILI severity category ([11]; ref Chen 2016): vLess-DILI-Concern | hLiMTs ATP <100uM [4]: +VE (IC50 threshold of 100 µM) | Structural based (HCI) [12]: -VE | Structural based (HCI) [8]: -VE | Structural based (HCI) [9]: +VE | In vivo DILI ([13]; […]): +VE | In vivo DILI ([13]; ref Garside 2014): +VE | In vivo DILI ([13]; ref O'Brien 2006): +VE | In vivo DILI ([13]; ref Persson 2013): +VE | In vivo DILI ([13]; ref Proctor 2017): +VE | In vivo DILI ([13]; ref Tolosa 2012): +VE | In vivo DILI ([13]; ref Xu 2008): -VE

C[C@H]1c2cccc(O)c2C(=O)C2=C(O)[C@]3(O)C(=O)C(C(N)=O)=C(O)[C@@H](N(C)C)[C@@H]3[C@@H](O)[C@@H]21 [doxycycline]
DILI +VE (5-8), DILI -VE (-4) ([11]; binary in vivo human DILI call, ref Chen 2016): +VE | DILI severity category ([11]; human DILI, LTKB DILIrank category, ref Chen 2016): vLess-DILI-Concern | DILI Score (FDA) (1-8) [14]: 3 | Structural based (HCI) [9]: +VE | In vivo DILI ([13]; ref Tolosa 2012): +VE

Cc1c(-c2ccccc2)oc2c(C(=O)OCCN3CCCCC3)cccc2c1=O [flavoxate]
PHH/100xCmax, Proctor (2017) ([2]; 2D PHH, ATP, IC50 < 100 × Cmax.tot, ref Proctor et al. 2017): -VE | PHH/100uM, Proctor (2017) [2, 17]: -VE | PHH ATP <100uM [2]: -VE | HepaRG <25x Avg Cmax ATP ([3]; HepaRG, ATP endpoint, cut-off <25x Avg Cmax): -ve | HepaRG <100x Avg Cmaxu ATP ([3]; HepaRG, ATP endpoint, cut-off <100x Avg Cmaxu): -ve | HepaRG <25x Avg Cmax HCS ([3]; HepaRG, HCS endpoints, cut-off <25x Avg Cmax): -ve | HepaRG <100x Avg Cmaxu HCS ([3]; HepaRG, HCS endpoints, cut-off <100x Avg Cmaxu): -ve | HepaRG <25x Avg Cmax All ([3]; HepaRG, all endpoints (ATP and HCS), cut-off <25x Avg Cmax): -ve | HepaRG Cmax max All ([3]; HepaRG, all endpoints, Cmax max used): -ve | HepaRG Cmax min All ([3]; HepaRG, all endpoints, Cmax min used): -ve | HepaRG <10 uM All ([3]; HepaRG, all endpoints): -ve | HepaRG <100x Avg Cmaxu All ([3]; HepaRG, all endpoints, cut-off <100x Avg Cmaxu): -ve | DILI prediction HepaRG spheroids (HCS-MEC) [3, 19]: -VE | DILI severity category (Chen et al. [2016]) ([11]; LTKB DILIrank category, ref Chen et al. 2016): No | DILI severity category (Chen 2016) ([11]; human DILI classification, LTKB DILIrank, ref Chen et al. 2016): No | DILI severity category ([11]; human DILI severity, ref Chen et al.): No | DILI +VE (5-8), DILI -VE (-4) ([11]; ref Chen 2016): -VE | DILI severity category ([11]; ref Chen 2016): vNo-DILI-Concern | hLiMTs ATP <100uM [4]: -VE | hLiMTs/100xCmax, Proctor (2017) ([4]; hLiMTs, ATP, IC50 < 100 × Cmax.tot, ref Proctor et al. 2017): -VE | hLiMTs/100uM, Proctor (2017) [4, 18]: -VE | AC50 ([5]; read-out: ATP endpoint AC50): 127 µM | minimal effective concentration ([5]; read-out: ATP endpoint MEC): 111 µM | DILI prediction hLiMTs (HCS-MEC) [5, 19]: -VE | hLiMTs <25x Avg Cmax ATP ([5]; hLiMTs, ATP endpoint, cut-off <25x Avg Cmax): -ve | hLiMTs <100x Avg Cmaxu ATP ([5]; hLiMTs, ATP endpoint, cut-off <100x Avg Cmaxu): -ve | hLiMTs <25x Avg Cmax HCS ([5]; hLiMTs, HCS endpoints, cut-off <25x Avg Cmax): -ve | hLiMTs <100x Avg Cmaxu HCS ([5]; hLiMTs, HCS endpoints, cut-off <100x Avg Cmaxu): -ve | hLiMTs <25x Avg Cmax All ([5]; hLiMTs, all endpoints (ATP and HCS), cut-off <25x Avg Cmax): -ve | hLiMTs Cmax max All ([5]; hLiMTs, all endpoints, Cmax max used): -ve | hLiMTs Cmax min All ([5]; hLiMTs, all endpoints, Cmax min used): -ve | hLiMTs <10 uM All ([5]; hLiMTs, all endpoints): -ve | hLiMTs <100x Avg Cmaxu All ([5]; hLiMTs, all endpoints, cut-off <100x Avg Cmaxu): -ve | Cmax [15]: 1790 nM | Bayesian Machine Learning DILI prediction, Williams (2019) ([16]; Bayesian modeling, ref Williams et al. 2019): -VE | Bayesian Machine Learning ([16]; ref Williams 2019): -VE | Assigned DILI category ([13]; Chen et al. 2016 or literature alignment, ref Chen et al. 2016): 1 | In vivo DILI ([13]; ref Proctor 2017): -VE | In vivo DILI ([13]; ref Williams 2019): -VE

CC[C@H](C)C(=O)O[C@H]1C[C@@H](C)C=C2C=C[C@H](C)[C@H](CC[C@@H]3C[C@@H](O)CC(=O)O3)[C@H]21 [lovastatin]
Structural based (HCI) [12]: -VE | in vitro data EC2<=1x Cmax [7]: -VE | in vitro data EC20<=2uM [7]: +VE | Structural based (HCI) [8]: -VE | Structural based (HCI) [9]: +VE
